# Assay results from PubChem BioAssay (NCI).
#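 In this assay, cells in 96-well plates receive the compound at five concentrations for 48 hours. Endpoints are linearly interpolated between the surrounding concentrations. GI50 is the concentration that inhibits growth by half. TGI denotes the concentration required for complete inhibition of growth.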
# Tests used:
# Experiment in all cases: growth of human tumour cells (NCI), 48 h
# NCI-H23 lung = tested on: NCI-H23 lung
# EKVX NSCLC = tested on: EKVX NSCLC
# HCC-2998 colon = tested on: HCC-2998 colon
# PC-3 prostate = tested on: PC-3 prostate
# MALME-3M melanoma = tested on: MALME-3M melanoma
# SK-MEL-5 melanoma = tested on: SK-MEL-5 melanoma
# LOX IMVI melanoma = tested on: LOX IMVI melanoma
# SN12C renal = tested on: SN12C renal
# SNB-19 CNS = tested on: SNB-19 CNS
# KM12 colon = tested on: KM12 colon
# MCF7 breast = tested on: MCF7 breast
# MDA-MB-435 = tested on: MDA-MB-435
# UACC-62 melanoma = tested on: UACC-62 melanoma
# U251 CNS = tested on: U251 CNS
# MDA-MB-231 breast = tested on: MDA-MB-231 breast
# SK-MEL-28 melanoma = tested on: SK-MEL-28 melanoma
# CCRF-CEM leukemia = tested on: CCRF-CEM leukemia
# NCI-H460 lung = tested on: NCI-H460 lung
# HS 578T breast = tested on: HS 578T breast
# NCI-H522 lung = tested on: NCI-H522 lung
# TK-10 renal = tested on: TK-10 renal
# RPMI-8226 leukemia = tested on: RPMI-8226 leukemia
# NCI/ADR-RES ovarian = tested on: NCI/ADR-RES ovarian
# K-562 leukemia = tested on: K-562 leukemia
# OVCAR-3 ovarian = tested on: OVCAR-3 ovarian
# HL-60(TB) leukemia = tested on: HL-60(TB) leukemia
# SF-295 CNS = tested on: SF-295 CNS
# SF-268 CNS = tested on: SF-268 CNS
# RXF 393 renal = tested on: RXF 393 renal
# A498 renal = tested on: A498 renal
# HOP-62 NSCLC = tested on: HOP-62 NSCLC
# HOP-92 NSCLC = tested on: HOP-92 NSCLC
# UO-31 renal = tested on: UO-31 renal
# HCT-15 colon = tested on: HCT-15 colon
# SR leukemia = tested on: SR leukemia
# 786-0 renal = tested on: 786-0 renal
# SK-OV-3 ovarian = tested on: SK-OV-3 ovarian
# SF-539 CNS = tested on: SF-539 CNS
# OVCAR-5 ovarian = tested on: OVCAR-5 ovarian
# NCI-H226 lung = tested on: NCI-H226 lung
# SW-620 colon = tested on: SW-620 colon
# OVCAR-4 ovarian = tested on: OVCAR-4 ovarian
# T-47D breast = tested on: T-47D breast
# A549 NSCLC = tested on: A549 NSCLC
# BT-549 breast = tested on: BT-549 breast
# DU-145 prostate = tested on: DU-145 prostate
# SNB-75 CNS = tested on: SNB-75 CNS
# IGROV1 ovarian = tested on: IGROV1 ovarian
# HT29 colon = tested on: HT29 colon
# OVCAR-8 ovarian = tested on: OVCAR-8 ovarian
# M14 melanoma = tested on: M14 melanoma
# MOLT-4 leukemia = tested on: MOLT-4 leukemia
# UACC-257 melanoma = tested on: UACC-257 melanoma
# SK-MEL-2 melanoma = tested on: SK-MEL-2 melanoma
# HCT-116 colon = tested on: HCT-116 colon
smiles,measurement,setting,value
C[C@@H]1CN(C(=O)c2ccc(NC(=O)c3cc(O[C@H](C)c4c(Cl)ccc(F)c4Cl)c(N)nn3)cc2)C[C@H](C)N1,GI50,NCI-H23 lung,3.17 µM
same,TGI,NCI-H23 lung,20.6 µM
same,GI50,EKVX NSCLC,5.66 µM
same,TGI,EKVX NSCLC,21.3 µM
same,GI50,HCC-2998 colon,14.5 µM
same,TGI,HCC-2998 colon,29.1 µM
same,GI50,PC-3 prostate,3.65 µM
same,TGI,PC-3 prostate,16.7 µM
same,GI50,MALME-3M melanoma,0.808 µM
same,TGI,MALME-3M melanoma,2.94 µM
same,GI50,SK-MEL-5 melanoma,1.55 µM
same,TGI,SK-MEL-5 melanoma,3.44 µM
same,GI50,LOX IMVI melanoma,1.46 µM
same,TGI,LOX IMVI melanoma,3.04 µM
same,GI50,SN12C renal,2.41 µM
same,TGI,SN12C renal,13.6 µM
same,GI50,SNB-19 CNS,5.41 µM
same,TGI,SNB-19 CNS,18.1 µM
same,GI50,KM12 colon,0.0558 µM
same,TGI,KM12 colon,13.5 µM
same,GI50,MCF7 breast,0.567 µM
same,TGI,MCF7 breast,12.6 µM
same,GI50,MDA-MB-435,1.88 µM
same,TGI,MDA-MB-435,16.8 µM
same,GI50,UACC-62 melanoma,1.7 µM
same,TGI,UACC-62 melanoma,5.24 µM
same,GI50,U251 CNS,3.4 µM
same,TGI,U251 CNS,12.9 µM
same,GI50,MDA-MB-231 breast,2.1 µM
same,TGI,MDA-MB-231 breast,8 µM
same,GI50,SK-MEL-28 melanoma,1.75 µM
same,TGI,SK-MEL-28 melanoma,3.86 µM
same,GI50,CCRF-CEM leukemia,1.78 µM
same,TGI,CCRF-CEM leukemia,12 µM
same,GI50,NCI-H460 lung,3.1 µM
same,TGI,NCI-H460 lung,13.7 µM
same,GI50,HS 578T breast,3.02 µM
same,TGI,HS 578T breast,21.9 µM
same,GI50,NCI-H522 lung,3.1 µM
same,TGI,NCI-H522 lung,12.2 µM
same,GI50,TK-10 renal,11.5 µM
same,TGI,TK-10 renal,23.6 µM
same,GI50,RPMI-8226 leukemia,2.37 µM
same,TGI,RPMI-8226 leukemia,8.17 µM
same,GI50,NCI/ADR-RES ovarian,11.7 µM
same,TGI,NCI/ADR-RES ovarian,31.1 µM
same,GI50,K-562 leukemia,0.37 µM
same,TGI,K-562 leukemia,10.2 µM
same,GI50,OVCAR-3 ovarian,6.44 µM
same,TGI,OVCAR-3 ovarian,19 µM
same,GI50,HL-60(TB) leukemia,1.21 µM
same,TGI,HL-60(TB) leukemia,3.3 µM
same,GI50,SF-295 CNS,1.11 µM
same,TGI,SF-295 CNS,10.5 µM
same,GI50,SF-268 CNS,4.5 µM
same,TGI,SF-268 CNS,17.7 µM
same,GI50,RXF 393 renal,1.93 µM
same,TGI,RXF 393 renal,5.29 µM
same,GI50,A498 renal,1 µM
same,TGI,A498 renal,5.33 µM
same,GI50,HOP-62 NSCLC,2.5 µM
same,TGI,HOP-62 NSCLC,14.4 µM
same,GI50,HOP-92 NSCLC,0.722 µM
same,TGI,HOP-92 NSCLC,5.18 µM
same,GI50,UO-31 renal,3.26 µM
same,TGI,UO-31 renal,14 µM
same,GI50,HCT-15 colon,3.92 µM
same,TGI,HCT-15 colon,15.1 µM
same,GI50,SR leukemia,0.0104 µM
same,TGI,SR leukemia,2.78 µM
same,GI50,786-0 renal,4.63 µM
same,TGI,786-0 renal,15.7 µM
same,GI50,SK-OV-3 ovarian,11.1 µM
same,TGI,SK-OV-3 ovarian,23.1 µM
same,GI50,SF-539 CNS,2.21 µM
same,TGI,SF-539 CNS,5.07 µM
same,GI50,OVCAR-5 ovarian,2.76 µM
same,TGI,OVCAR-5 ovarian,17.6 µM
same,GI50,NCI-H226 lung,3.9 µM
same,TGI,NCI-H226 lung,22.5 µM
same,GI50,SW-620 colon,2.29 µM
same,TGI,SW-620 colon,12.6 µM
same,GI50,OVCAR-4 ovarian,8.84 µM
same,TGI,OVCAR-4 ovarian,24.1 µM
same,GI50,T-47D breast,4.51 µM
same,TGI,T-47D breast,20.5 µM
same,GI50,A549 NSCLC,3.03 µM
same,TGI,A549 NSCLC,15.8 µM
same,GI50,BT-549 breast,5.14 µM
same,TGI,BT-549 breast,16.5 µM
same,GI50,DU-145 prostate,6.7 µM
same,TGI,DU-145 prostate,19.2 µM
same,GI50,SNB-75 CNS,2.8 µM
same,TGI,SNB-75 CNS,11.1 µM
same,GI50,IGROV1 ovarian,4.38 µM
same,TGI,IGROV1 ovarian,20.4 µM
same,GI50,HT29 colon,1.19 µM
same,TGI,HT29 colon,3.46 µM
same,GI50,OVCAR-8 ovarian,7.16 µM
same,TGI,OVCAR-8 ovarian,19.7 µM
same,GI50,M14 melanoma,1.55 µM
same,TGI,M14 melanoma,3.19 µM
same,GI50,MOLT-4 leukemia,0.907 µM
same,TGI,MOLT-4 leukemia,10.4 µM
same,GI50,UACC-257 melanoma,1.39 µM
same,TGI,UACC-257 melanoma,3.2 µM
same,GI50,SK-MEL-2 melanoma,5.57 µM
same,TGI,SK-MEL-2 melanoma,19.6 µM
same,GI50,HCT-116 colon,1.46 µM
same,TGI,HCT-116 colon,10.7 µM
